In paper PMC4506051, “Pharmacokinetic Profiles of Active Ingredients and Its Metabolites Derived from Rikkunshito, a Ghrelin Enhancer, in Healthy Japanese Volunteers: A Cross-Over, Randomized Study” (PLoS ONE, 2015):

How the values were obtained:
[1] = Formation of ingredients derived from rikkunshito in formulation, blood, and urine (S11 Table summary); conditions: after rikkunshito administration, per ingredient in the formulation; for Formation of ingredients: form found in Urine: BQL = below the quantification limit
[2] = Dose proportionality (linearity) test by power model for C max and AUC0-last; conditions: for Dose proportionality test using power model, Inference: linear when 90% CI of β included 1, CIlower ≥0.8, and CIupper ≤1.25; for Dose proportionality test using power model, β: rikkunshito 2.5, 5.0 or 7.5 g
Method: The dose proportionality was analyzed via a power model [21, 22]. […] Evaluation of linearity of the dosage-exposure relationship was conducted with Phoenix WinNonlin and SAS 9.2 (SAS Institute, Inc., Cary, NC).

[3] = system: 5-HT2BR; parameters: method as in PMID 18439428; conditions: cited from earlier work
[4] = Method validation: post-preparative stability (autosampler); conditions: autosampler set at 4°C
[5] = Method validation: stability in blood
[6] = system: cisplatin-induced anorexia model; conditions: oral administration; cisplatin-induced anorexia model; cited from earlier work
[7] = Method validation: short-term stability in plasma
[8] = Method validation: freeze-thaw stability in plasma; conditions: −30°C to −10°C, 3 cycles
[9] = Exploratory trial: plasma concentration of rikkunshito ingredients after single oral rikkunshito 7.5 g; format: in vivo
How it was run: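 Healthy volunteers took a single oral rikkunshito dose of 7.5 g. Heparinized forearm blood was drawn at 0, 0.5, 1, 2, 4 and 8 h, with urine pooled pre-dose, 0–4 h and 4–8 h. Analytes were quantified in plasma by LC–MS/MS with internal standards, after solid-phase extraction and, where applied, 2 h β-glucuronidase treatment at 37°C.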

[10] = system: ghrelin secretion; conditions: cited from earlier work
[11] = Method validation: long-term stability in plasma
[12] = Exploratory trial: amount of rikkunshito ingredients in urine; format: in vivo, human; conditions: mean ± S.D., n = 4; for Amount in urine, 4–8 h: 4–8 h after single oral rikkunshito 7.5 g
How it was run: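 Subjects took single oral 7.5 g rikkunshito; urine collected pre-dose and 0–4 h and 4–8 h post-dose, stored at −80 °C or lower. Synephrine quantified by LC–MS/MS after plate cleanup with erythromycin IS; other ingredients after β-glucuronidase (2 h, 37 °C) and HLB solid-phase extraction.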

[13] = Exploratory trial: ingredients in β-glucuronidase (enzyme)-treated plasma; format: in vivo, human; conditions: β-glucuronidase-treated, rikkunshito 7.5 g, mean ± S.D., n = 4
Method: In the first exploratory trial, 20-mL blood samples were collected from the cutaneous vein in the subjects’ forearm via a blood sampling tube that contained heparin at 0 (preadministration), 0.5, 1, 2, 4, and 8 h after a single oral administration of rikkunshito (Lot E24652). The dose of rikkunshito used in this trial was 7.5 g/day, which is the clinical daily dose, to widely explore rikkunshito-derived ingredients that enter the blood. Along with plasma, urine samples were collected at three points: between dinner and bedtime (preadministration), between 0 and 4 h after administration, and between 4 and 8 h after administration. The blood was immediately centrifuged at 1700 ×g for 10 min to obtain plasma. Plasma and urine fractions were stored at −80°C or lower until analysis.
For quantification of 30 ingredients other than atractylodin and synephrine, 25 µL of standard solution or methanol was added to 500 µL plasma or urine samples followed by mixing. Atractylenolide III or digoxin (IS) solution (50 μL) was added to the solutions followed by mixing. For urine, 400 µL of blank plasma was added to the solutions. Ammonium acetate solution (100 mM, 100 or 400 µL) was added to the solutions followed by mixing. For enzymatic treatment, plasma and urine samples were incubated with β-glucuronidase (100 units in 100 mM ammonium acetate) for 2 h at 37°C. A solid-phase cartridge (OASIS HLB, 30 mg/1cc, Waters) was conditioned with methanol and 10 mM ammonium acetate solution, and the samples were loaded onto the cartridge. The cartridge was washed water : methanol (9:1, v/v), and 1.5 mL of methanol and 30 µL of propylene glycol were added to the cartridge to elute the analytes. The mixtures were dried at 25°C under a stream of nitrogen gas. Furthermore, 100 μL of 10 mM ammonium acetate : methanol (8:2, v/v) was added to the dried samples followed by mixing and sonication. The solutions were filtered (0.22 µm) and followed by injection into the LC–MS/MS system. […] Those analytical conditions are summarized in S2 Table and S3 Table.

[14] = 48 h, higher concentration (800 / 320 / 4000 pg/mL)
[15] = 48 h, lower concentration (20 / 8 / 100 pg/mL)
[16] = on ice 2 h, higher concentration (800 / 320 / 4000 pg/mL)
[17] = on ice 2 h, lower concentration (20 / 8 / 100 pg/mL)
[18] = room temperature (1°C to 30°C) 4 h, higher concentration (800 / 320 / 4000 pg/mL)
[19] = room temperature (1°C to 30°C) 4 h, lower concentration (20 / 8 / 100 pg/mL)
[20] = higher concentration (800 / 320 / 4000 pg/mL)
[21] = lower concentration (20 / 8 / 100 pg/mL)

Compound: COc1ccc(-c2oc3c(OC)c(OC)c(OC)c(OC)c3c(=O)c2OC)cc1OC [Heptamethoxyflavone, 3,3′,4′,5,6,7,8-heptamethoxyflavone]
- Formation of ingredients: form found in Blood [1]: Heptamethoxyflavone
- Formation of ingredients: form found in Urine [1]: BQL
- Dose proportionality test using power model, Inference ([2]; AUC0-last): Nonlinear
- Dose proportionality test using power model, β ([2]; AUC0-last): 0.804
- Dose proportionality test using power model, Inference ([2]; Cmax): Nonlinear
- Dose proportionality test using power model, β ([2]; Cmax): 0.817
- 5-HT2BR inhibitory/antagonistic activity [3]: most potent 5-HT2BR antagonistic activity among all rikkunshito ingredients
- Post-preparative stability, RR ([4]; 24 h, higher concentration (pachymic acid 800, heptamethoxyflavone 320 pg/mL)): 86.3%
- Post-preparative stability, RR ([4]; 24 h, lower concentration (pachymic acid 20, heptamethoxyflavone 8 pg/mL)): 100.3%
- Post-preparative stability, RR [4, 14]: 90.8%
- Post-preparative stability, RR [4, 15]: 96.5%
- Stability in blood, RR [5, 16]: 92.3%
- Stability in blood, RR [5, 17]: 97.5%
- Stability in blood, RR ([5]; room temperature 2 h, higher concentration (pachymic acid 800, heptamethoxyflavone 320, naringenin 4000 pg/mL)): 96.0%
- Stability in blood, RR ([5]; room temperature 2 h, lower concentration (pachymic acid 20, heptamethoxyflavone 8, naringenin 100 pg/mL)): 107.1%
- Acylated ghrelin level in blood [6]: suppressed the decrease of the acylated ghrelin level in blood in a concentration-dependent manner
- Short-term stability, RR ([7]; room temperature 25 h, higher concentration (pachymic acid 800, heptamethoxyflavone 320 pg/mL)): 91.2%
- Short-term stability, RR ([7]; room temperature 25 h, lower concentration (pachymic acid 20, heptamethoxyflavone 8 pg/mL)): 90.3%
- Short-term stability, RR [7, 18]: 103.3%
- Short-term stability, RR [7, 19]: 99.5%
- Freeze-thaw stability, RR [8, 20]: 113.5%
- Freeze-thaw stability, RR [8, 21]: 107.1%
- Plasma concentration, 0 h ([9]; 0 h (preadministration), single oral rikkunshito 7.5 g, mean ± S.D., n = 4): BQL
- concentration at 0.5 h ([9]; human, plasma, 0.5 h after single oral rikkunshito 7.5 g, mean ± S.D., n = 4, read-out: Plasma concentration, 0.5 h): 0.171 ± 0.18 ng/mL
- concentration at 1 h ([9]; human, plasma, 1 h after single oral rikkunshito 7.5 g, mean ± S.D., n = 4): 0.253 ± 0.301 ng/mL
- concentration at 2 h ([9]; human, plasma, 2 h after single oral rikkunshito 7.5 g, mean ± S.D., n = 4, read-out: Plasma concentration, 2 h): 0.157 ± 0.187 ng/mL
- concentration at 4 h ([9]; human, plasma, 4 h after single oral rikkunshito 7.5 g, mean ± S.D., n = 4, read-out: Plasma concentration, 4 h): 0.0569 ± 0.0821 ng/mL
- concentration at 8 h ([9]; human, plasma, 8 h after single oral rikkunshito 7.5 g, mean ± S.D., n = 4, read-out: Plasma concentration, 8 h): 0.00613 ± 0.0123 ng/mL
- Known pharmacology activities: ghrelin secretion [10]: Ghrelin secretion promoting activity [14, 15]
- Long-term stability, RR ([11]; freezer −30°C to −10°C, 13 days, lower concentration (pachymic acid 20, heptamethoxyflavone 8 pg/mL)): 90.3%
- Long-term stability, RR ([11]; freezer, 13 days, higher concentration (pachymic acid 800, heptamethoxyflavone 320 pg/mL)): 113.1%
- Long-term stability, RR ([11]; freezer, 39 days, higher concentration (800 / 320 pg/mL)): 99.7%
- Long-term stability, RR ([11]; freezer, 39 days, lower concentration (20 / 8 pg/mL)): 85.5%
- Long-term stability, RR ([11]; freezer, 228 days, higher concentration (800 / 320 pg/mL)): 87.5%
- Long-term stability, RR ([11]; freezer, 228 days, lower concentration (20 / 8 pg/mL)): 85.0%

Compound: O=C1C[C@@H](c2ccc(O)cc2)Oc2cc(O)cc(O)c21 [Naringenin]
- Amount in urine, 0–4 h ([12]; 0–4 h after single oral rikkunshito 7.5 g): BQL
- Amount in urine, 4–8 h [12]: 2380 ± 2940 ng
- Amount in urine, 4–8 h ([12]; listed as naringenin): 2,380 ng
- Amount in urine, Pre ([12]; preadministration (between dinner and bedtime)): BQL
- Formation of ingredients: form found in Blood [1]: Naringenin Conjugate metabolites of naringenin^a
- Formation of ingredients: form found in Urine [1]: Naringenin
- Dose proportionality test using power model, Inference ([2]; AUC0-last): Nonlinear
- Dose proportionality test using power model, β ([2]; AUC0-last): 1.02
- Dose proportionality test using power model, Inference ([2]; Cmax): Nonlinear
- Dose proportionality test using power model, β ([2]; Cmax): 1.06
- 5-HT2BR inhibitory/antagonistic activity [3]: most potent 5-HT2BR antagonistic activity among all rikkunshito ingredients
- Post-preparative stability, RR [4, 14]: 87.1%
- Post-preparative stability, RR [4, 15]: 85.6%
- Post-preparative stability, RR ([4]; naringenin 100 pg/mL, 25 h as printed in the cell): 91.7%
- Post-preparative stability, RR ([4]; naringenin 4000 pg/mL, 25 h as printed in the cell): 96.7%
- Stability in blood, RR [5, 16]: 98.1%
- Stability in blood, RR [5, 17]: 95.8%
- Short-term stability, RR ([7]; naringenin 100 pg/mL, room temperature, 24 h as printed in the cell): 113.8%
- Short-term stability, RR ([7]; naringenin 4000 pg/mL, room temperature, 24 h as printed in the cell): 112.2%
- Short-term stability, RR [7, 18]: 92.8%
- Short-term stability, RR [7, 19]: 102.1%
- Freeze-thaw stability, RR [8, 20]: 96.7%
- Freeze-thaw stability, RR [8, 21]: 90.6%
- concentration at 0 h ([9]; human, in vivo, po): 0.378 ± 0.755 ng/mL
- concentration at 0.5 h ([9]; human, in vivo, po): 0.0358 ± 0.0715 ng/mL
- concentration at 2 h ([9]; human, in vivo, po): 0.0813 ± 0.105 ng/mL
- concentration at 4 h ([9]; human, in vivo, po): 0.0715 ± 0.0831 ng/mL
- Plasma concentration, 1 h ([9]; in vivo, po): BQL
- Plasma concentration, 8 h ([9]; in vivo, po): BQL
- concentration at 0.5 h ([13]; human, plasma, oral, 0.5 h): 0.311 ± 0.211 ng/mL
- concentration at 1 h ([13]; human, plasma, oral, 1 h): 0.261 ± 0.188 ng/mL
- concentration at 2 h ([13]; human, plasma, oral, 2 h, read-out: Plasma concentration in enzyme-treated plasma, 2 h): 0.351 ± 0.311 ng/mL
- concentration at 4 h ([13]; human, plasma, oral, 4 h, read-out: Plasma concentration in enzyme-treated plasma, 4 h): 0.861 ± 0.749 ng/mL
- concentration at 8 h ([13]; human, plasma, oral, 8 h, read-out: Plasma concentration in enzyme-treated plasma, 8 h): 0.156 ± 0.234 ng/mL
- Plasma concentration in enzyme-treated plasma, 0 h ([13]; 0 h (preadministration)): BQL
- Long-term stability, RR ([11]; naringenin 100 pg/mL, freezer −30°C to −10°C, 22 days): 101.9%
- Long-term stability, RR ([11]; naringenin 100 pg/mL, freezer, 31 days): 98.1%
- Long-term stability, RR ([11]; naringenin 100 pg/mL, freezer, 220 days): 86.8%
- Long-term stability, RR ([11]; naringenin 4000 pg/mL, freezer, 22 days): 95.8%
- Long-term stability, RR ([11]; naringenin 4000 pg/mL, freezer, 31 days): 95.8%
- Long-term stability, RR ([11]; naringenin 4000 pg/mL, freezer, 220 days): 85.2%
